Source: PMC11959706, “Allatostatin-C signaling in the crab Carcinus maenas is implicated in the ecdysis program” (The Journal of Experimental Biology, 2025)
Bridge positions count the residues as written; N and C are the ends. Ends that are not written are not given here.

Columns and labels:
Y-organs = assay: Y-organ in vitro bioassay of ecdysteroid synthesis (ecdysteroid RIA); assay type: cell-based, Carcinus maenas; conditions: 100 nmol l^−1, 24 h incubation; N=3–6
Experimental: To determine the possible activity of AST-C and/or AST-CC on ecdysteroid synthesis, Y-organs (YOs) were dissected from ice-anaesthetized crabs and used in the in vitro bioassay as detailed previously ([Webster, 1986]). Following 24 h incubations, culture medium was aspirated and snap frozen in liquid nitrogen prior to ecdysteroid RIA. YOs were sonicated in PBS, centrifuged (13,000 g for 5 min at room temperature) and assayed for protein concentration using a BCA protein kit (EMD Millipore, Burlington MA, USA). Protein concentrations (BSA standards) were used to normalize ecdysteroid synthesis between YO pairs.
Ecdysteroid RIAs were performed on 20 µl aliquots of culture medium using the following conditions: 100 μl 1:2000 anti-ecdysteroid serum HB-2E (a kind gift from R. D Watson, Alabama University), 100 µl H^−3 Ponasterone A [24, 25, 26, 27-3H (N), 3.5 TBq mmol^−1 (American Radiochemical Company, St Louis, MO, USA)] at 28,000 dpm per tube. 25-Deoxyecdysone (a kind gift from Prof. R. Lafont, Sorbonne University, Paris) was used as a standard (range 2500–19.5 pg per tube), and unknowns and standards were assayed in triplicate. Bound was separated from free using 50 µl per tube immobilized donkey anti-rabbit nitrocellulose suspension (Sac-Cel), as detailed for the AST-C RIA. Pellets were resuspended in 600 µl Hi-Safe 3 (Perkin Elmer) prior to counting. Using this RIA, both ecdysone and 25-deoxyecdysone (the two ecdysteroids synthesized by C. maenas YOs) were equally recognized.

AST-C receptor = conditions: cited from earlier work; for EC50: Apis mellifera single AST-C receptor, ref Urlacher et al., 2016, read-out: EC50, receptor activation; for ED50, receptor activation: Tribolium castaneum AST-C receptor, ref Audsley et al., 2013
Excerpt: Thus, the cognate receptor for AST-CCC remains elusive. Despite the well-known similarity in receptor sequences between AST-CR and the somatostatin receptor ([Krienkamp et al., 2002]; [Mayoral et al., 2010]; [Jékely, 2013]; [Verl ...

heart = conditions: H. americanus; often seen, the converse in some individuals; ref Dickinson et al., 2018; cited from earlier work
[1] = system: antiserum raised against Manduca sexta AST-C; assay: AST-C radioimmunoassay standard curves and cross-reactivity; assay type: binding; conditions: competitive RIA with iodinated AST-C tracer, antiserum 1:1000; typical standard curves
Experimental: AST-C (300 pmol, dissolved in 10 µl 200 mmol l^−1 phosphate buffer at pH 7.5) was radio iodinated with 9.25–12.5 MBq NaI^125 in 10^−5 mol l^−1 NaOH (PerkinElmer, Boston MA), using Chloramine-T ([Bolton, 1989]). Following termination of the reaction (4.3 µg cysteine in 100 µl phosphate buffer) and quenching (500 µl of 0.2 mg ml^−1 KI in phosphate buffer), radiolabeled peptide was separated from unincorporated iodide on Sep-Pak C18 cartridges (Waters, Milford, MA, USA), by firstly washing with 10 ml of 200 mmol l^−1 phosphate buffer then eluting the peptide with 40% isopropanol in 500 µl fractions. Small quantities (2 µl) were then taken for counting. Specific activities of 8–16 TBq mmol^−1 were routinely obtained.
RIA conditions were as follows: iodinated AST-C 35,000 dpm per 50 µl PBS containing 0.05% BSA and 0.02% sodium azide. An antiserum raised against Manduca sexta AST-C (a generous gift from Dr N. Audsley, FERA, York) was used at 1:1000 in PBS at 50 µl per tube. Standard peptides 2–2000 fmol per 50 µl and unknowns were assayed in duplicate. Tubes were first incubated for 6 h at room temperature, without tracer, which was then added, followed by 4°C incubation overnight. […]

Row | Substance | Effect on ecdysteroid synthesis by Y-organs (Y-organs) | EC50 (AST-C receptor) [nM] | ED50, receptor activation (AST-C receptor) [nM] | Effect on heart rate (heart) | ED50 in AST-C RIA standard curve [1] [fmol per tube]
1 | GNGDGRLYWRCYFNAVSCF (disulfide 11-18 (inferred)) [AST-CC, C. maenas AST-C family neuropeptide; synthetic (GenScript)] | entirely without effect | 15.4 | 105.7 | decrease in amplitude and frequency of heart rate | 8000
2 | pQIRYHQCYFNPISCF (disulfide) [AST-C, allatostatin-C, C. maenas AST-C family neuropeptide with C-terminal PISCF motif; synthetic (GenScript)] | entirely without effect | 14.6 | 25 | decrease in amplitude and frequency of heart rate | 20
